Patent US9518064B2, “Imidazothiadiazole and imidazopyridazine derivatives as protease activated receptor 4 (PAR4) inhibitors for treating platelet aggregation” (BRISTOL-MYERS SQUIBB COMPANY, priority 2012, dated 2016)

Key:
Assay type in all cases: cell-based
PAR4 [1] = molecular target: T1, PAR4 (Homo sapiens (Human), UniProt Q96RI0); test: FLIPR assay in PAR4-expressing HEK293 cells (calcium mobilization); conditions: PAR4 antagonist activity, FLIPR assay as described in Example A
PAR4 [2] = molecular target: T1, PAR4; test: Gamma thrombin induced platelet aggregation assay (PRP assay); conditions: γ-thrombin induced platelet aggregation in PRP
human washed platelets = test: Alpha-thrombin induced platelet aggregation assay in human washed platelets; conditions: 0.1 h, read-out: IC50 for the inhibition of platelet aggregation
Procedure: Example D is an alpha-thrombin-induced platelet aggregation assay. Alpha-thrombin activates both PAR1 and PAR4. The ability of a selective PAR4 antagonist of the present invention, Example 13, to inhibit platelet aggregation was measured using a standard optical aggregometer.
Human blood was collected in ACD (85 mM tri-sodium citrate, 78 mM citric acid, 110 mM D-glucose, pH 4.4) at a ratio of 1.4 ml per 10 ml blood. PRP was isolated by centrifugation at 170 g for 14 minutes and platelets were further pelleted by centrifugation at 1300 g for 6 minutes. Platelets were washed once with 10 ml ACD containing 1 mg/ml bovine serum albumin. Platelets were resuspended at ˜2.5×10^8/ml in Tyrode's Buffer (137 mM NaCl, 2 mM KCl, 1.0 mM MgCl2, 1 mM CaCl2, 5 mM glucose, 20 mM HEPES pH 7.4).
The ability of a PAR4 antagonist (Example 13) compound to inhibit platelet aggregation induced by alpha-thrombin was tested using human washed platelets. Example 13 was pre-incubated with washed platelets for 20 min. Aggregation was initiated by addition of 1.5 nM alpha-thrombin (Haematologic Technologies, Essex Junction, Vt.) to 300 μl of washed platelets at stirring speed of 1000 rpm. […] IC50 was calculated using vehicle control as 0% inhibition.

human PRP = test: Tissue factor-induced platelet aggregation assay; conditions: FIGS. 1 and 2
Excerpt: Example E is a tissue factor-induced platelet aggregation assay. The conditions in this assay mimic the physiological events during thrombus formation. In this assay, platelet aggregation in human PRP was initiated by the addition of tissue factor and CaCl2. Tissue factor, the initiator of the extrinsic coagulation cascade, is highly elevated in human atherosclerotic plaque. Exposure of blood to tissue factor at the atherosclerotic site triggers a robust generation of thrombin and induces the formation of obstructive thrombi.
The ability of PAR1 or PAR4 antagonists to inhibit platelet aggregation induced by endogenous thrombin can be tested in a tissue factor driven aggregation assay. Aggregation is initiated by addition of CaCl2 and recombinant human tissue factor, which results in the generation of thrombin through activation of the coagulation pathway in the plasma. Anticoagulant agents such as corn trypsin inhibitor (Haematologic Technologies, Essex Junction, Vt.) at 50 μg/ml and PEFABLOC® FG (Centerchem, Norwalk, Conn.) are also added to the sample to prevent fibrin clot formation during the time of the study. Platelet aggregation is monitored using standard instrumentation including optical aggregometer or impedance aggregometer.

T1 sequence (Q96RI0 18-385): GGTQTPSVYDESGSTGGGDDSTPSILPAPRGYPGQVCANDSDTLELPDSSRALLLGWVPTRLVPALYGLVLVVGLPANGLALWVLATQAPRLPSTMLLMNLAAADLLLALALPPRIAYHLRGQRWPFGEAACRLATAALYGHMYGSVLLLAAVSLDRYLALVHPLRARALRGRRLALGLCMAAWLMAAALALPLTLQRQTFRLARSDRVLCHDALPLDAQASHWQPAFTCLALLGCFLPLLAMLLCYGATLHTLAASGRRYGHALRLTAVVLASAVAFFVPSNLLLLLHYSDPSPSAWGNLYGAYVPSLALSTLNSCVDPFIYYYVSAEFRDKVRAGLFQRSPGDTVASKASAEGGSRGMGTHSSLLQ

COc1cc(OCc2cccc(-c3ccc(C#N)nc3)c2)c2cc(-c3cn4nc(OC)sc4n3)oc2c1 [Example 13]
IC50 (PAR4 [1]): 1.74 nM
IC50 (PAR4 [2]): 4.91 nM
IC50 (human washed platelets): 11 nM
inhibition of tissue factor-induced platelet aggregation (human PRP): effective inhibition
